The values below come from patent US20260373136A1, “A NOVEL DOSAGE REGIMEN USING LOW DOSES OF DONEPEZIL OR DERIVATIVE THEREOF FOR PREVENTING OR TREATING A COMPULSIVE DISORDER” (SORBONNE UNIVERSITE, priority 2022, published 2026).

Holding throughout (type): in vivo, human
Assay [1] is described as follows: Yale-Brown Obsessive Compulsive Scale questionnaire (Y-BOCS) before and after treatment. To be noted: for OCD symptoms: Y-BOCS post vs pre-treatment; for Y-BOCS score, post treatment: 0-7 subclinical, 8-15 mild, 16-23 moderate, 24-31 severe, 32-40 extreme symptoms. The procedure:
(§1) 6 anorexic patients were treated with donepezil: 5 of them with a daily dose according to the present invention and 1 with a higher dose (comparative).
(§2) The studies were led in hospital. Each case is presented below.
(§3) The treatment started with a daily dose of donepezil of 0.5 mg for 10 days then the daily dose was increased to 1 mg for 7 days then increased to 1.5 mg for 71 days (2 months and 10 days) then increased to 2 mg for 22 days and then increased to 2.5 mg and remains on this dose for 4 months and 18 days.
Patient #2 obsessive-compulsive disorders (OCD) symptoms have also been evaluated with the Yale-Brown Obsessive Compulsive Scale questionnaire (Y-BOCS) (available on https://pcl.psychiatry.uw.edu/wp-content/uploads/2021/12/YBOCS.pdf) before and after the treatment. The following scores have been obtained:
The score obtained with questionnaire Y-BOCS is classified as follows: • 0-7: subclinical; 8-15: mild symptoms; 16-23: moderate symptoms; 24-31: severe symptoms; 32-40: extreme symptoms
(§4) The treatment started with a daily dose of donepezil of 0.5 mg for 13 days then the daily dose was increased to 0.75 mg for 9 days then increased to 1 mg for 17 days and then increased to 1.5 mg and remained at this dosage for a month then stopped for two months and then restarted with a daily dose of 1.5 mg that remains within 1 month and then discontinued.
Patient #4 obsessive-compulsive disorders (OCD) symptoms have also been evaluated with questionnaire Y-BOCS-before and after the treatment. The following scores have been obtained:
(§5) The treatment started with a daily dose of donepezil of 0.5 mg for 8 days and then the daily dose was increased to 1 mg for 9 days and then increased to 1.67 mg for 62 days and then increased to 2.5 mg.
Patient #6 obsessive-compulsive disorders (OCD) symptoms have also been evaluated with questionnaire Y-BOCS-before and after the treatment.

Assay [2] is described as follows: Eating Disorder Examination Questionnaire (EDE-q) before and after treatment. On the set-up: scale not given here. To be noted: >=4 clinical range, >2.8 possible clinically significant pathology. As for the experimental part:
as §1, §2, §4
The eating disorders of patient #4 before and after treatment have been evaluated with the Eating Disorder Examination Questionnaire (EDE-q) (available on https://www.corc.uk.net/outcome-experience-measures/eating-disorder-examination-questionnaire-ede-q/) which has given the following results:
as §5
The eating disorders of patient #6 before and after treatment have been evaluated with EDE-q questionnaire which has given the following results: […]

The nature of assay [3]: Body weight / BMI of anorexic patients treated with donepezil. As for the experimental part:
The term “Body Mass Index” (BMI) is calculated by dividing the body mass of an individual (in kg) by his height (in […]). The BMI is generally used to evaluate if an individual suffers from under nutrition or on the contrary if he/she suffers from overweight or obesity.
as §1, §2
Patient #2 is a person who developed anorexia nervosa restricting type in adolescence. They were very restricted in the types of food they ate and could not eat food that was processed or high in sugar or fats. They exercised 3-4 hours a day. They were unable to reduce their exercising even minimally […] becoming flooded with debilitating anxiety. They were unable to eat enough to maintain a healthy weight. Their BMI was 18.5 kg/m^2 and was medically stable when they started donepezil.
as §3, §4
A patient who has suffered from anorexia nervosa during their second pregnancy. They have been vigilant about their caloric intake and body image since their adolescence. […] The symptomatology is dominated by qualitative and quantitative food restriction and physical hyperactivity. […] Neurocognitive executive functions are preserved, there is a high tolerance of delayed reward measured by Delay Discounting Task. […]

[4] abbreviates: Patient #6, daily dose 0.5 mg to 2.5 mg, pre-treatment 3.8.

As to `COc1cc2c(cc1OC)C(=O)C(CC1CCN(Cc3ccccc3)CC1)C2` (stereo not shown) [donepezil], the OCD symptoms result in assay [1] (Patient #2, daily dose 0.5-2.5 mg) was “diminution of OCD symptoms”; in assay [1] (Patient #4, daily dose 0.5 to 1.5 mg), “diminution of OCD symptoms”; in assay [1] (Patient #6, daily dose 0.5 mg to 2.5 mg), “diminution of OCD symptoms”. Also, the “Y-BOCS score, post treatment” value amounted to 22 in assay [1] (Patient #2, daily dose 0.5-2.5 mg, pre-treatment score 32); 16 in assay [1] (Patient #4, daily dose 0.5 to 1.5 mg, pre-treatment score 28); 17 in assay [1] (Patient #6, daily dose 0.5 mg to 2.5 mg, pre-treatment score 28). In addition, the “EDE-q Restraint score, post treatment” value amounted to 2 in assay [2] (Patient #4, daily dose 0.5 to 1.5 mg, pre-treatment 4) and 2.8 in assay [2] (setting [4]). In addition, the “EDE-q Eating concerns score, post treatment” value in assay [2] (Patient #4, daily dose 0.5 to 1.5 mg, pre-treatment 4.6) came out at 2.2; in assay [2] (Patient #6, daily dose 0.5 mg to 2.5 mg, pre-treatment 0.6), 0.4. The “EDE-q Global scores, post treatment” value in assay [2] (Patient #4, daily dose 0.5 to 1.5 mg, pre-treatment 4.9) is 3.0; in assay [2] (Patient #6, daily dose 0.5 mg to 2.5 mg, pre-treatment 3.4), 2.6. Besides, the “EDE-q Weight concerns score, post treatment” value came to 3.4 in assay [2] (Patient #4, daily dose 0.5 to 1.5 mg, pre-treatment 5.4) and 3.2 in assay [2] (setting [4]). In addition, the “EDE-q Shape concerns score, post treatment” value in assay [2] (Patient #4, daily dose 0.5 to 1.5 mg, pre-treatment 5.8) is reported as 4.4; in assay [2] (Patient #6, daily dose 0.5 mg to 2.5 mg, pre-treatment 5.4) it was 4.1. Further, the BMI entry in assay [3] (Patient #2, daily dose 0.5-2.5 mg, over the next 5 months, BMI 18.5 kg/m^2 at start, maintained) is “over 20 kg/m^2”; in assay [3] (Patient #4, daily dose 1.5 mg, within a month, BMI plateaued after rise to 15 kg/m^2 before treatment) it was 15.6 kg/m^2. Further, the body weight in assay [3] (Patient #5, 2.5 mg per day for 2 months, from 27 kg, in 3 months) came out at 36 kg.
